One test addresses HDAC3 (Homo sapiens, UniProt O15379). In words: in vitro activity-based HDAC assay. The class given is biochemical. To be noted: human HDAC isoform panel, Table 1.
The next test concerns the target HDAC1 (Homo sapiens, UniProt Q13547). In words: in vitro activity-based HDAC assay. It is filed as biochemical. The note with it: human HDAC isoform panel, Table 1.

Structures are written as SMILES. Where only a bound is given, the exact number is not on record here.

As a reminder, the IC50 is the midpoint of a concentration-inhibition curve. A high value points to a need for much substance.

HDAC3, sequence (O15379 whole entry, canonical isoform): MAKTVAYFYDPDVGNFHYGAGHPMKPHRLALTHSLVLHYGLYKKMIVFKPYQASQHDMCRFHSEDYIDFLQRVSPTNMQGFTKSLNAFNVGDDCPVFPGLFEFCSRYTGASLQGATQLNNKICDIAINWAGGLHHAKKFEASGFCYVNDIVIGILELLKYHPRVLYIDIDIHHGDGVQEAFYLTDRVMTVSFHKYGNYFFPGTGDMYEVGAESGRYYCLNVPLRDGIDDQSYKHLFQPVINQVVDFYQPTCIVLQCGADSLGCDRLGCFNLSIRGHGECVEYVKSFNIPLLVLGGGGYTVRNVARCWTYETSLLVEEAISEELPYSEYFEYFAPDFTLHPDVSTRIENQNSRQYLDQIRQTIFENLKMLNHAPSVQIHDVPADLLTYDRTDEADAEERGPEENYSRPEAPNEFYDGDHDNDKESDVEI
HDAC3, sequence (Q9Y618 395-489 partner limits assumed): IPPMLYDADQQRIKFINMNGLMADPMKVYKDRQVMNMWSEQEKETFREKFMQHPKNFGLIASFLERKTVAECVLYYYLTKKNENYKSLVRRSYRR
HDAC1, sequence (Q13547 whole entry, canonical isoform): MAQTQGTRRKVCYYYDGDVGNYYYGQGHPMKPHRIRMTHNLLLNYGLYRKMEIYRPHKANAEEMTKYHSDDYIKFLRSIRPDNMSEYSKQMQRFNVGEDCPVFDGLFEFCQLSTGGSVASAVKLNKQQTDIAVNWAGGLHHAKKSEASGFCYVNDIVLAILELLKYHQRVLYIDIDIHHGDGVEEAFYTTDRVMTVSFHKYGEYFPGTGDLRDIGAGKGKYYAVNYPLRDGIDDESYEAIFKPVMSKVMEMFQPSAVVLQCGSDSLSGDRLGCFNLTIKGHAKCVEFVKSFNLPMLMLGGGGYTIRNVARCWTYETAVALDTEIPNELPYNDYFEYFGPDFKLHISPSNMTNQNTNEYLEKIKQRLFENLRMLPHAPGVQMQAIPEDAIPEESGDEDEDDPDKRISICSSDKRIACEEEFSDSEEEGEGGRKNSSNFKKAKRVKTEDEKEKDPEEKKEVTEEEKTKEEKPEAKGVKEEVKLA

Compound `O=C(NO)c1ccc(CN(Cc2cccnc2)S(=O)(=O)c2cc(F)c(F)c(F)c2F)cc1` [Compound I-18, N-hydroxy-4-((2,3,4,5-tetrafluoro-N-(pyridin-3-ylmethyl)phenylsulfonamido)methyl)benzamide] returned an IC50 against HDAC3 of 373 nM.
As to `O=C(NO)c1ccc(CN(C2CC2)S(=O)(=O)c2cc(F)c(F)c(F)c2F)cc1` [Compound I-13, 4-((N-cyclopropyl-2,3,4,5-tetrafluorophenylsulfonamido)methyl)-N-hydroxybenzamide], the half-maximal inhibitory concentration (IC50) against HDAC1 is more than 1000 nM.
